Experimental data taken from patent publication US20050124638A1, “Benzimidazoles and analogs thereof as antivirals” (priority 2003, published 2005).
Read-outs that look alike come from different tables or passages of the source.

Assays:
[1] = test system: HCV IRES stem IIa RNA target; test: Mass spectrometry based binding assay; settings: for binding percentages of ligand to target: ligand 50 μM, IIa target 2.5 μM, Table 1
[2] = Single dose in vivo pharmacokinetic study; settings: rats, single 3.0 mg/kg IV, mean; for clearance / Vd: rat, plasma; for Vd: read-out: Vdss
Procedure: A single dose pharmacokinetic study was performed to investigate the pharmacokinetics of representative compounds. Of particular interest was […] the ability of the compounds to accumulate in liver, which is the target tissue for HCV chemotherapy as it is the primary reservoir of virus. 3-4 rats per group were administered a single dose (3 mg/kg intravenously, IV or 6 mg/kg orally, PO). Blood samples were taken at 0.25, 0.5, 1, 2, 3, 4, 6, and 8 h timepoints, and pharmacokinetic parameters calculated. Both representative compounds were rapidly distributed to tissues, as evidenced by the high clearance rates and volumes of distribution, and low levels of excretion (ca 10% of total drug in urine and feces at 8 h). Major tissues were examined for presence of drug. […] The tissue accumulation for the IV dose is shown in FIG. 1, as a function of concentration and percent of total administered dose.

[3] = test system: HCV RNA levels in Ntat2ANeo replicon containing cell line; test: Replicon assay (Ntat2ANeo replicon cells, quantitative RT-PCR of HCV RNA); assay type: cell-based; settings: Hepatitis C virus; Table 8
female mice = test: Acute in vivo toxicity study; settings: 5 or 45 mg/kg i.p. for 3 days
Procedure: In the study design, 3-4 female mice/group were dosed with 0, 5 or 45 mg/kg of IBIS00553642, IBIS000408094, or IBIS00405746 for 3 days (i.p.). Clinical signs, body weights, clinical pathology, organ weights, and histopathology endpoints were evaluated.
A single dose toxicity study was performed to investigate the toxicity of representative compounds. Briefly, 3-4 female mice per group were administered 0, 5, or 45 mg/kg drug (intraperitoneal) on consecutive days for 3 days. At the end of the study, mice were sacrificed, and clinical signs, body weights, clinical pathology, organ weights, and histopathology endpoints were evaluated. […] The gross findings at necropsy were minor and limited to discolorations in liver and kidney or large gallbladder in 4/18 mice (no dose response and unclear relationship to drug). […] There were no drug-related effects on clinical pathology.

MTT toxicity assay = assay type: cell-based
Text: The color was quantified by spectrophotometric means. For each cell type a linear relationship between cell number and absorbance is established, enabling quantification of changes of proliferation.

[4] = Table 8, read-out: Kd to IIa target
[5] = constrained vs unconstrained N1/N2 side chains, read-out: KD

Structure (SMILES) | Kd [1, 4] [µM] | IC50 [3] [µM] | CC50 at 48 h (MTT toxicity assay) [µM] | other results
Nc1nc2ccccc2n1CCCN1CCCC1 | – | – | – | binding percentages of ligand to target [1]: 15%
CCN(CC)CCn1c(N)nc2ccccc21 | – | – | – | binding percentages of ligand to target [1]: 15%
CN(C)CCn1c(N)nc2ccccc21 | – | – | – | binding percentages of ligand to target [1]: 11%
Nc1nc2ccccc2n1CCOc1ccccc1 | – | – | – | binding percentages of ligand to target [1]: 6%
COc1ccc2nc(N)n(CCCN(C)C)c2c1 | – | – | – | MS Target Selectivity ([1]; Table 2): ˜10; Kd ([1]; Table 2, read-out: Est. KD): ~40 µM
CN(C)CCCOc1ccc2nc(N)[nH]c2c1 | – | – | – | MS Target Selectivity ([1]; Table 3): ˜2; Kd ([1]; Table 3, read-out: Est. KD): > 500 µM
CN(C)CCCOc1ccc2ncn(CCCN(C)C)c2c1 | – | – | – | MS Target Selectivity ([1]; Table 3): 1; Kd ([1]; Table 3, read-out: Est. KD): > 500 µM
CN(C)CCCn1c(N)nc2ccc(OCCCN(C)Cc3ccco3)cc21 | – | – | – | clearance [2]: 34.5 mL/min/kg; Vd [2]: 82.8 L/kg; % AUC Extrap [2]: 80.0%; AUC [2]: 311 ng·h/mL; AUC Extrap [2]: 1928 ng·h/mL; Co [2]: 201 ng/mL; MRT [2]: 3.1 h; T1/2 [2]: 37.5 h
CN(C)CCCOc1ccc2nc(N)n(CCCN(C)C)c2c1 [IBIS00403514] | 3.8 | 37.1 | – | –
CN(C)CCCn1c(N)nc2ccc(OCCCN[C@@H]3CCN(Cc4ccccc4)C3)cc21 [IBIS00405746] | – | – | – | Clinical Signs (female mice): No significant toxicity at 5 mg/kg dose.
CN(CCCOc1ccc2nc(N)n(CCCN3CCCCC3)c2c1)Cc1ccc[nH]1 [IBIS00408094] | – | – | – | Clinical Signs (female mice): No significant toxicity at 5 and 45 mg/kg doses.
CN(C)CCCOc1ccc2nc3n(c2c1)CC(CN(C)C)CN3 (stereo not shown) [IBIS00408169] | 4.5 | 28.7 | > 100 | –
CN(C)CC1CNc2nc3ccc(OCCCNC4CCN(Cc5ccccc5)CC4)cc3n2C1 (stereo not shown) [IBIS00528633] | 4 | 13.7 | > 100 | –
CN(C)CC1CNc2nc3ccc(OCCCN4CCC(N5CCCC5)CC4)cc3n2C1 (stereo not shown) [IBIS00528634] | 1.7 | 19.2 | > 100 | –
CN(C)CC1CNc2nc3ccc(OCCCN[C@@H]4CCN(Cc5ccccc5)C4)cc3n2C1 (stereo partly shown) [IBIS00528635] | 1 | 42.3 | 90 | –
CN(C)CC1CNc2nc3ccc(OCCCN(C)Cc4ccc[nH]4)cc3n2C1 (stereo not shown) [IBIS00528636] | 1.2 | 27.2 | 90 | –
CN(C)CC1CNc2nc3ccc(OCCCN(C)Cc4ccccn4)cc3n2C1 (stereo not shown) [IBIS00528637] | 0.56 | 14.2 | > 100 | –
CC1CCCCN1CCCn1c(N)nc2ccc(OCCCN(C)Cc3ccccn3)cc21 (stereo not shown) [IBIS00553642] | – | – | – | Clinical Signs (female mice): No significant toxicity at 5 and 45 mg/kg doses.
CN(C)CCCOc1ccc2nc3n(c2c1)CC(CN1CCCCC1)CN3 (stereo not shown) [IBIS00554807] | 3.4 | 14.1 | > 100 | –
CN(CCCOc1ccc2nc3n(c2c1)CC(CN1CCCCC1)CN3)Cc1ccccn1 (stereo not shown) [IBIS00554811] | 4.3 | 24 | > 100 | –
CN(CCCOc1ccc2nc3n(c2c1)CC(CN1CCCCC1)CN3)Cc1ccco1 (stereo not shown) [IBIS00554813] | 5.1 | 18.2 | > 100 | –
CN(C)CC1CNc2nc3ccc(OCCCN(C)Cc4cccn4C)cc3n2C1 (stereo not shown) [IBIS00554842] | 0.78 | 4 | 50 | –
CN(C)CC1CNc2nc3ccc(OCCCN(C)Cc4ncc[nH]4)cc3n2C1 (stereo not shown) [IBIS00554843] | 3.1 | > 100 | > 100 | –
CN(C)CC1CNc2nc3ccc(OCCCN(C)Cc4ccco4)cc3n2C1 (stereo not shown) [IBIS00554844] | 1.7 | 4.9 | > 100 | –

Structure (SMILES) | Kd [1, 4] [µM] | IC50 [3] [µM] | CC50 at 48 h (MTT toxicity assay) [µM] | other results
CN(C)CC1CNc2nc3ccc(OCCCN(C)Cc4cccs4)cc3n2C1 (stereo not shown) [IBIS00554886] | 5 | 15.3 | > 100 | –
CN(C)CC1CNc2nc3ccc(OCCCN(C)Cc4nccs4)cc3n2C1 (stereo not shown) [IBIS00554888] | 8.8 | > 100 | > 100 | –
CN(C)CC1CNc2nc3ccc(OCCCN(C)Cc4ccc(CO)o4)cc3n2C1 (stereo not shown) [IBIS00554889] | 5.9 | 57.9 | > 100 | –
CN(C)CC1CNc2nc3ccc(OCCCN(C)Cc4cccc(Br)n4)cc3n2C1 (stereo not shown) [IBIS00560002] | 110 | 11.6 | > 100 | –
CN(C)CCCn1c(N)nc2ccc3c(c21)CC(CN(C)C)CO3 (stereo not shown) [IBIS00560020] | 2.2 | 9 | > 100 | –
CN(C)CCCn1c(N)nc2ccc3c(c21)CC(CCN)CO3 (stereo not shown) [IBIS00560024] | 3.4 | > 100 | > 100 | –
CN(C)CCCn1c(N)nc2ccc3c(c21)CC(CN(C)CCN(C)C)CO3 (stereo not shown) [IBIS00560025] | 9.4 | 71.2 | > 100 | –
CN(C)CCCn1c(N)nc2ccc3c(c21)CC(CN(C)Cc1cccn1C)CO3 (stereo not shown) [IBIS00560031] | 18 | 21.7 | > 100 | –
CN(C)CCCn1c(N)nc2ccc3c(c21)CC(CN(C)C)O3 (stereo not shown) [IBIS00560047] | – | – | > 100 | –
CN(C)CCCn1c(N)nc2ccc3c(c21)CC(CN(C)CCN(C)C)O3 (stereo not shown) [IBIS00560048] | 11 | 23 | > 100 | –
CNCC1COc2ccc3nc(N)n(CCCN(C)C)c3c2C1 (stereo not shown) [IBIS00560100] | 3.1 | 51.6 | > 100 | –
CN(C)CCCn1c(N)nc2ccc3c(c21)CC(CN(C)C(=N)N)CO3 (stereo not shown) [IBIS00560101] | 5.5 | > 100 | > 100 | –
CN(C)CCCn1c(N)nc2ccc3c(c21)CC(CN(C)Cc1cccn1C)O3 (stereo not shown) [IBIS00560102] | 10.4 | 3.3 | > 100 | –
CN(C)CCCn1c(N)nc2ccc3c(c21)CC(CN)CO3 (stereo not shown) [IBIS00560121] | 17.2 | 42.7 | > 100 | –
CN(C)CCCn1c(N)nc2ccc3c(c21)CC(CN(C)Cc1ncc[nH]1)CO3 (stereo not shown) [IBIS00560122] | 19.6 | > 100 | > 100 | –
CN(C)CC1COc2ccc3nc4n(c3c2C1)CC(CN(C)C)CN4 (stereo not shown) [IBIS00560146] | 21.1 | 5.4 | > 100 | –
CN(C)CCCn1c(N)nc2ccccc21 [drawing 62] | – | – | – | binding percentages of ligand to target [1]: 56% binding
CN(C)CCCn1c(N)nc2ccccc21 [drawing 67] | – | – | – | MS Target Selectivity ([1]; Table 2): ˜3; Kd ([1]; Table 2, read-out: Est. KD): ~100 µM
CN(C)CCCOc1ccc2nc(N)n(CCCN(C)C)c2c1 [drawing 69] | – | – | – | MS Target Selectivity ([1]; Table 2): ˜15; Kd ([1]; Table 2, read-out: Est. KD): ~10 µM
CN(C)CCCOc1ccc2nc(N)n(CCCN(C)C)c2c1 [drawing 70] | – | – | – | MS Target Selectivity ([1]; Table 3): ˜15; Kd ([1]; Table 3, read-out: Est. KD): ~10 µM
CN(C)CCCn1c(N)nc2ccccc21 [drawing 71] | – | – | – | MS Target Selectivity ([1]; Table 3): ˜3; Kd ([1]; Table 3, read-out: Est. KD): ~100 µM
CN(C)CCCOc1ccc2nc3n(c2c1)CC(CN(C)C)CN3 (stereo not shown) [drawing 124] | – | – | – | Kd [1, 5]: 0.67 µM
CN(C)CCCOc1ccc2nc(N)n(CCCN(C)C)c2c1 [drawing 125] | – | – | – | Kd [1, 5]: 3.6 µM
CN(C)CC1CNc2nc3ccc(OCCCN(C)Cc4ccccn4)cc3n2C1 (stereo not shown) [drawing 164] | – | – | – | clearance [2]: 160 mL/min/kg; Vd [2]: 137 L/kg; % AUC Extrap [2]: 47%; AUC [2]: 165 ng·h/mL; AUC Extrap [2]: 320 ng·h/mL; Co [2]: 219 ng/mL; MRT [2]: 2 h; T1/2 [2]: 14 h
